Patent US10047105B2, “Gyrase inhibitors” (Merck Sharp & Dohme Corp., priority 2009, dated 2018)
In brackets after ≈: the same amount, converted by molar mass.

Experiments:
Assay type in all cases: cell-based
S. aureus ATCC 13709 = test: MIC, antibacterial potency, S. aureus; conditions: S. aureus (SA); in µg/mL
S. pneumoniae ATCC 51916 = test: MIC, S. pneumoniae; conditions: S. pneumoniae (Spn52); in µg/mL
E. coli 8 ATCC 25922 = test: MIC, E. coli 8 (wt); conditions: E. coli 8 (EC8)

SMILES | MIC, SA (S. aureus ATCC 13709) | MIC Spn52 (S. pneumoniae ATCC 51916) | MIC EC8 (E. coli 8 ATCC 25922)
CCOC(=O)C(=O)NCC1CCN(c2nc(Sc3cnc4cccnc4c3)nc3[nH]c(CC)c(Cl)c23)C1 (stereo not drawn) [701,043] | 1 | >64 | > 64 µg/mL
CCc1[nH]c2nc(Sc3cnc4cccnc4c3)nc(N3C[C@@H](N)[C@@H](C(=O)N[C@@H](CO)c4ccccc4)C3)c2c1Cl [701,022] | 4 | 2 | > 64 µg/mL
CCc1[nH]c2nc(Oc3ccc4ncnc(N5CC(N)C5)c4c3)nc(Oc3cncc(C#N)c3)c2c1Br [701,299] | 2 | 4 | > 64 µg/mL
CCc1[nH]c2nc(Oc3ccc[n+]([O-])c3)nc(Oc3ccc4nccnc4c3)c2c1Br [701,091] | <=0.5 | <=0.5 | > 64 µg/mL
CCc1[nH]c2nc(Oc3cncc(OC)c3)nc(N3CC(O)C3)c2c1Cl [700,934] | 4 | 16 | > 64 µg/mL
CCOC(=O)/C=C/c1ccc(Sc2nc(N3CC[C@@H](N)C3)c3c(Cl)c(CC)[nH]c3n2)cc1F [700,925] | 4 | 32 | > 64 µg/mL
CCc1[nH]c2nc(Oc3cccc(C#N)c3)nc(C(C)N3CC4C(N)C4C3)c2c1Cl (stereo not drawn) [700,951] | >16 | >16 | > 16 µg/mL
CCc1[nH]c2nc(Sc3ccc4c(c3)c(=O)c(C#N)cn4CCCN(C)C)nc(N3CC[C@@H](N)C3)c2c1Cl [700,929] | 16 | 64 | 32 µg/mL (≈ 58.1 µM)
CCc1[nH]c2nc(Sc3ccc4c(c3)c(=O)c(C#N)cn4CCN(C)C)nc(N3CC[C@@H](N)C3)c2c1Cl [700,928] | 2 | 8 | 16 µg/mL (≈ 29.8 µM)
CCc1[nH]c2nc(Oc3cnc4c(c3)ncn4C)nc(Oc3ccc4nccnc4c3)c2c1Br [701,030] | <=0.5 | <=0.5 | > 64 µg/mL
CCOC(=O)NCC1CCN(c2nc(Sc3cnc4cccnc4c3)nc3[nH]c(CC)c(Cl)c23)C1 (stereo not drawn) [701,035] | <=0.5 | <=0.5 | > 64 µg/mL
CCc1[nH]c2nc(Sc3ccc(/C=C/C(=O)O)c(F)c3)nc(N3CC[C@@H](N)C3)c2c1Cl [701,002] | 4 | >64 | > 64 µg/mL
CCc1[nH]c2nc(Oc3ccc4nccnc4c3)nc(OC3CCNCC3)c2c1Cl [701,290] | >64 | 64 | > 64 µg/mL
CCc1[nH]c2nc(Sc3cnc4c(=N)n(CC5OCCO5)c(C)nc4c3)nc(N3CC[C@@H](N)C3)c2c1Cl [700,906] | 2 | 4 | > 64 µg/mL
CCc1[nH]c2nc(Sc3ccc4c(N5CC(N)C5)ncnc4c3)nc(N3CC[C@@H](N)C3)c2c1Cl [700,942] | 16 | 16 | 8 µg/mL (≈ 16.1 µM)
CCc1[nH]c2nc(Oc3cncnc3)nc(N3CCCC3CO)c2c1Cl (stereo not drawn) [700,908] | 8 | 16 | > 64 µg/mL
CCc1[nH]c2nc(Sc3ccc4[nH]cc(C(=O)O)c(=O)c4c3)nc(N3CC[C@@H](N)C3)c2c1Cl [700,920] | >64 | >64 | > 64 µg/mL

SMILES | MIC, SA (S. aureus ATCC 13709) | MIC Spn52 (S. pneumoniae ATCC 51916) | MIC EC8 (E. coli 8 ATCC 25922)
CCc1[nH]c2nc(Oc3cnc(OC)c(OC)c3)nc(Oc3ccc4nccnc4c3)c2c1Br [701,096] | <=0.5 | <=0.5 | > 64 µg/mL
CCc1[nH]c2nc(Sc3cc(C(=O)O)c4cnccc4c3)nc(N3CC[C@@H](N)C3)c2c1Cl [700,970] | 8 | 32 | > 64 µg/mL
CCc1[nH]c2nc(Sc3ccc4cccnc4c3)nc(N3CC4C(N)C4C3)c2c1Cl (stereo not drawn) [700,992] | <=0.5 | <=0.5 | > 64 µg/mL
CCc1[nH]c2nc(Oc3cnc(C)nc3)nc(N3CC4C(N)C4C3)c2c1Cl (stereo not drawn) [701,151] | <=0.5 | 2 | 8 µg/mL (≈ 20.7 µM)
CCc1[nH]c2nc(Sc3ccc4c(c3)C(=O)NC4)nc(N3CC4C(C3)C4(N)C(N)=O)c2c1Cl (stereo not drawn) [700,973] | <=0.5 | 2 | > 64 µg/mL
CCc1[nH]c2nc(Oc3cncc(C#N)c3)nc(Oc3cnc(N)nc3)c2c1Br [701,255] | <=0.5 | <=0.5 | > 64 µg/mL
CCc1[nH]c2nc(Oc3cncc(C(N)=O)c3)nc(C)c2c1Cl [701,231] | 2 | 4 | > 64 µg/mL
CCc1[nH]c2nc(Oc3cccnc3)nc(N3CC4C(N)C4C3)c2c1Cl (stereo not drawn) [701,140] | 4 | 8 | > 64 µg/mL
CCc1[nH]c2nc(Sc3ccc4oc(C)nc4c3)nc(N3CC[C@@H](N)C3)c2c1Cl [701,039] | 8 | 8 | > 64 µg/mL
CCc1[nH]c2nc(Sc3ccc4[nH]cc(C#N)c(=O)c4c3)nc(N3CC[C@@H](N)C3)c2c1Cl [700,919] | >64 | >64 | > 64 µg/mL
CCc1[nH]c2nc(Oc3cncnc3)nc(N3CC4C(N)C4C3)c2c1C (stereo not drawn) [701,193] | 8 | 32 | 64 µg/mL (≈ 182 µM)
CCc1[nH]c2nc(Oc3ccc4nccnc4c3)nc(Oc3cncnc3)c2c1Br [700,965] | <=0.5 | <=0.5 | 64 µg/mL (≈ 138 µM)
CCc1[nH]c2nc(SC)nc(N3CC[C@@H](N)C3)c2c1Cl [701,076] | >64 | 64 | > 64 µg/mL
CCc1[nH]c2nc(Oc3cccc(C#N)c3)nc(C(C)N3CC4C(C3)C4(N)C(N)=O)c2c1Cl (stereo not drawn) [700,952] | 64 | 64 | > 64 µg/mL
CCc1[nH]c2nc(Sc3cnc4ccc[n+]([O-])c4c3)nc(N3CC[C@@H](N)C3)c2c1Cl [701008-2] | <=0.5 | 1 | 4 µg/mL (≈ 9.05 µM)
CCc1[nH]c2nc(Oc3cnc4ccoc4c3)nc(N3CC4CNC4C3)c2c1Cl (stereo not drawn) [700,936] | 64 | 32 | > 64 µg/mL
